Source: US6469013B2, “Therapeutic compounds” (Parker Hughes Institute, priority 1998, dated 2002)
Where two headings read alike, the source gives them in different places. Values belong to the compound of their own block, whether it stands above or below them.

Key:
recombinant murine JAK3 = target: T1, recombinant murine JAK3 (Mus musculus, UniProt Q62137); assay: Recombinant JAK3 immune complex kinase assay (baculovirus, Sf21); type: biochemical
T1 sequence (Q62137 1-1100): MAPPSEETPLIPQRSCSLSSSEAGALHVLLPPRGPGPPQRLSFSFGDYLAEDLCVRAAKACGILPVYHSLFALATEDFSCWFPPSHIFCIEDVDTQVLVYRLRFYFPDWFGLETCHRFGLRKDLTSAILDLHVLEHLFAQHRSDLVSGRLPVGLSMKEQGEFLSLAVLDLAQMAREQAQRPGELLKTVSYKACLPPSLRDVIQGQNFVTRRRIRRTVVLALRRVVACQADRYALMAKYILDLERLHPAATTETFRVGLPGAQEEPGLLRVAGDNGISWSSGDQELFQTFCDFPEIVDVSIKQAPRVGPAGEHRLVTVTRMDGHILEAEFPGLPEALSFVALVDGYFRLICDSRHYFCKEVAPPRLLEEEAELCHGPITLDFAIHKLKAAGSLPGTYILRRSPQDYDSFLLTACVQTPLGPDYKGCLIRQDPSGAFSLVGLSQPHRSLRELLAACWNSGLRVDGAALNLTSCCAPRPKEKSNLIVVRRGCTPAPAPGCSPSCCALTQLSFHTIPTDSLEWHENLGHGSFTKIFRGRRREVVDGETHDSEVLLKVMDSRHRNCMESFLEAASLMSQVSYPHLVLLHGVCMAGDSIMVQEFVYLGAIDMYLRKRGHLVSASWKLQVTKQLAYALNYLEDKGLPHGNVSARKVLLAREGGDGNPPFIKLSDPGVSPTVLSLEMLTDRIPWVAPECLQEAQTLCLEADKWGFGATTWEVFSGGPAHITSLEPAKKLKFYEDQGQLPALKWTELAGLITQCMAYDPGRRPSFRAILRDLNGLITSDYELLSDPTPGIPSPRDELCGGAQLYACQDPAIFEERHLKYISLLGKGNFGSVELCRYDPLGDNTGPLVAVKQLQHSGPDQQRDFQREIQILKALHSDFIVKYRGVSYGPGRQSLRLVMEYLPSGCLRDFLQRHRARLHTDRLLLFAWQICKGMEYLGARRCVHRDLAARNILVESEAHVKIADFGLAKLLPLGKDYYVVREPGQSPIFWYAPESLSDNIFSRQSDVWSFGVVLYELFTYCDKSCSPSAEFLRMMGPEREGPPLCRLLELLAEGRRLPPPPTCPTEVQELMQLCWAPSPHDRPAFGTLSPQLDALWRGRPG
Procedure: Sf21 (IPLB-SF21-AE) cells (Vassilev, A., et al., J. Biol. Chem. 274: 1646-1656, 1999) derived from the ovarian tissue of the fall armyworm Spodotera frugiperda, were obtained from Invitrogen (Carlsbad, Calif.) and maintained at 26-28° C. in Grace's insect cell medium supplemented with 10% FBS and 1.0% antibiotic/antimycotic (GIBCO-BRL). Stock cells were maintained in suspension at 0.2-1.6×10^6/ml in 600 ml total culture volume in 1 L Bellco spinner flasks at 60-90 rpm. Cell viability was maintained at 95-100% as determined by trypan blue dye exclusion. Sf21 cells were infected with a baculovirus expression vector for BTK, SYK, JAK1, JAK2, or JAK3. Cells were harvested, lysed (10 MM Tris pH7.6, 100 mM NaCl, 1% Nonidet P40, 10% glycerol, 50 mM NaF, 100 μM Na3VO4, 50 μg/ml phenylmethylsulfonyl fluoride, 10 μg/ml aprotonin, 10 μg/ml leupeptin), the kinases were immunoprecipitated from the lysates, and their enzymatic activity assayed, as reported (Vassilev, A., et al., J. Biol. Chem. 274: 1646-1656, 1999; Uckun, F. M., et al., Science. 22: 1096-1100, 1996; Goodman, P. A., et al., J. Biol. Chem. 273: 17742-48, 1998; Mahajan, S., et al., Mol. Cell. Biol. 15: 5304-11, 1995; and Uckun, F. M., et al., Science. 267: 886-91, 1995). The immunoprecipitates were subjected to Western blot analysis as previously described (Vassilev, A., et al., J. Biol. Chem. 274: 1646-1656, 1999; and Uckun, F. M., et al., Science. 22: 1096-1100, 1996).
In JAK3 immune complex kinase assays (17, 22), KL-2 EBV-transformed human lymphoblastoid B cells (native JAK3 kinase assays) or insect ovary cells (recombinant JAK3 kinase assays) were lysed with NP-40 lysis buffer (50 mM Tris, pH 8, 150 mM NaCl, 5 mM EDTA, 1% NP-40, 100 μM sodium orthovanadate, 100 μM sodium molybdate, 8 μg/ml aprotinin, 5 μg/ml leupeptin, and 500 μM PMSF) and centrifuged 10 min at 13000× g to remove insoluble material. Samples were immunoprecipitated with antisera prepared against JAK3. The antisera were diluted and immune complexes collected by incubation with 15 μl protein A Sepharose. After 4 washes with NP-40 lysis buffer, the protein A Sepharose beads were washed once in kinase buffer (20 mM MOPS, pH7, 10 mM MgCl2) and resuspended in the same buffer. Reactions were initiated by the addition of 25 μCi [γ^32P] ATP (5000 Ci/mMole) and unlabeled ATP to a final concentration of 5 μM. Reactions were terminated by boiling for 4 min in SDS sample buffer. Samples were run on 9.5% SDS polyacrylamide gels and labeled proteins were detected by autoradiography. […] For each drug concentration, a kinase activity index (KA) was determined by comparing the kinase activity in phosphorimager units (PIU) to that of the baseline sample. […]

human JAK3 = target: T2, human JAK3 (Homo sapiens, UniProt P52333); assay: JAK3 immune complex kinase assay (JAK3 immunoprecipitated from KL2 EBV-transformed B cell line); type: biochemical
T2 sequence (P52333 1-1124): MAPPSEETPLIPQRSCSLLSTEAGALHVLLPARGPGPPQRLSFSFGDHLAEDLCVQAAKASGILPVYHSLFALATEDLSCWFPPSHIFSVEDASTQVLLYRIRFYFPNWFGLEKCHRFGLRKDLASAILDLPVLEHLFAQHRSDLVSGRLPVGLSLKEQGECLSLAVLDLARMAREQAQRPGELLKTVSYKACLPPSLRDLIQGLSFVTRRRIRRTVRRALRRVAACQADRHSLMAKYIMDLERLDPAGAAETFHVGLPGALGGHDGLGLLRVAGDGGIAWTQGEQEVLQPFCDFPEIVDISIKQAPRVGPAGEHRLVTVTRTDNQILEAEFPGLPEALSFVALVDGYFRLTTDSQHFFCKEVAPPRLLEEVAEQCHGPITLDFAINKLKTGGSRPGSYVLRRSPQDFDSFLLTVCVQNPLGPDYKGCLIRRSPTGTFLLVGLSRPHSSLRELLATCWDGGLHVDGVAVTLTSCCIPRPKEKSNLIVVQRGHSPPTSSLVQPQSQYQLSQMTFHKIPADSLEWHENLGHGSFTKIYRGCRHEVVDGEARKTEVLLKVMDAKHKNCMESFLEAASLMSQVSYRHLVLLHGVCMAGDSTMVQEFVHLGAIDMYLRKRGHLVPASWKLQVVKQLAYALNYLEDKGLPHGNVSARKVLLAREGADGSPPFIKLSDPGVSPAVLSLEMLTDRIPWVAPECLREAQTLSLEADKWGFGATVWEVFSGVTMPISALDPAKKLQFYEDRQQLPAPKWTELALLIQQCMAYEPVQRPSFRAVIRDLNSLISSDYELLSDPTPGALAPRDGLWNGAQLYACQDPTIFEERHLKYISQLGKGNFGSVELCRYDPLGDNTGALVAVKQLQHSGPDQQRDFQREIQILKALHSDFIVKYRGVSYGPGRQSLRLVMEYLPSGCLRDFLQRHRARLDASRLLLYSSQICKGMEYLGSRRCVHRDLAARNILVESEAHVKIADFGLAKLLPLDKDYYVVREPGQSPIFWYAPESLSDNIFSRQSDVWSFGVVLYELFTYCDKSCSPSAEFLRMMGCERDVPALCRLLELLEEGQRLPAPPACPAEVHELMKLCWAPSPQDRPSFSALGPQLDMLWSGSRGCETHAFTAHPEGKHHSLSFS
Procedure: In JAK3 immune complex kinase assays (17, 22), KL-2 EBV-transformed human lymphoblastoid B cells (native JAK3 kinase assays) or insect ovary cells (recombinant JAK3 kinase assays) were lysed with NP-40 lysis buffer (50 mM Tris, pH 8, 150 mM NaCl, 5 mM EDTA, 1% NP-40, 100 μM sodium orthovanadate, 100 μM sodium molybdate, 8 μg/ml aprotinin, 5 μg/ml leupeptin, and 500 μM PMSF) and centrifuged 10 min at 13000× g to remove insoluble material. Samples were immunoprecipitated with antisera prepared against JAK3. The antisera were diluted and immune complexes collected by incubation with 15 μl protein A Sepharose. After 4 washes with NP-40 lysis buffer, the protein A Sepharose beads were washed once in kinase buffer (20 mM MOPS, pH7, 10 mM MgCl2) and resuspended in the same buffer. Reactions were initiated by the addition of 25 μCi [γ^32P] ATP (5000 Ci/mMole) and unlabeled ATP to a final concentration of 5 μM. Reactions were terminated by boiling for 4 min in SDS sample buffer. Samples were run on 9.5% SDS polyacrylamide gels and labeled proteins were detected by autoradiography. Following electrophoresis, kinase gels were dried onto Whatman 3M filter paper and subjected to phosphorimaging on a Molecular Imager (Bio-Rad, Hercules, Calif.) as well as autoradiography on film. For each drug concentration, a kinase activity index (KA) was determined by comparing the kinase activity in phosphorimager units (PIU) to that of the baseline sample. In some experiments, cold kinase assays were performed, as described by (Uckun, F. M., et al., Clin. Can. Res. 4: 901-912, 1998).
We first used immune complex kinase assays to compare the effects of the synthesized dimethoxyquinazoline compounds on the enzymatic activity of human JAK3 immunoprecipitated from the KL2 EBV-transformed human lymphoblastoid B cell line.

[1] = JAK3 kinase assay, KL2 cell-derived human JAK3, read-out: IC50

- IC50 (recombinant murine JAK3; recombinant murine JAK3): 128 µM
- IC50 (recombinant murine JAK3; recombinant murine JAK3, converted from μg/ml): ~128 µM
SMILES: COc1cc2ncnc(Nc3ccc(O)c(Br)c3)c2cc1OC [WHI-P154, 4-(3′bromo4′-hydroxyl-phenyl)-amino-6,7-dimethoxyquinazoline]

- IC50 (human JAK3; [1]): 11 µM
SMILES: COc1cc2ncnc(Nc3cc(Br)c(O)c(Br)c3)c2cc1OC [WHI-P97, 4-(3′,5′-dibromo-4′-hydroxyl-phenyl)-amino-6,7-dimethoxyquinazoline]

SMILES: COc1cc2ncnc(Nc3ccccc3O)c2cc1OC [WHI-P132]
- IC50 (human JAK3): > 300 µM
- activity against JAK3 (in words) (human JAK3; biological assays): inactive against JAK3

- melting point: 245 °C (dec.)
SMILES: COc1cc2ncnc(Nc3ccc(O)c(Cl)c3)c2cc1OC [WHI-P197]

SMILES: COc1cc2ncnc(Nc3cccc(Br)c3)c2cc1OC [WHI-P79]
- IC50 (human JAK3; [1]): > 300 µM

- IC50 (human JAK3; [1]): > 300 µM
- melting point: 225 to 228 °C
SMILES: COc1cc2ncnc(Nc3ccc(C)c(Br)c3)c2cc1OC [WHI-P111]

SMILES: COc1cc2ncnc(Nc3ccccc3)c2cc1OC [WHI-P258, 4-(phenyl)-amino-6,7-dimethoxyquinazoline]
- IC50 (human JAK3; [1]): > 300 µM
